Experiments:
Format in all cases: cell-based, human
HL-60(TB) = assay: NCI-60 growth inhibition, HL-60(TB); conditions: Leukemia HL-60(TB), 48 h
Excerpt: (§1) The anticancer effects of compounds 1a-1b against 60 human cancer cell lines (the Developmental Therapeutics Program of NCI) were studied. The cell lines were derived from different cancer types including leukemia, non-small-cell lung cancer, colon cancer, CNS cancer, melanoma, ovarian cancer, renal cancer, prostate cancer, and breast cancer (Table 1; the assay protocol can be found at: https://dtp.cancer.gov/default.htm). Compound 1a caused over 50% growth inhibition for most tested cell lines. […] Without wishing to be bound by any particular theory, it is believed that the differences in the anticancer effects between compounds 1a and 1b may be due to the more favorable cell membrane permeability of the boronic ester 1a.

K-562 = assay: NCI-60 growth inhibition, K-562
Excerpt: as §1

EKVX = assay: NCI-60 growth inhibition, EKVX; conditions: Non-Small Cell lung Cancer EKVX, 48 h
Excerpt: as §1

NCI-H322M = assay: NCI-60 growth inhibition, NCI-H322M; conditions: Non-Small Cell lung Cancer NCI-H322M, 48 h
Excerpt: as §1

NCI-H460 = assay: NCI-60 growth inhibition, NCI-H460
Excerpt: as §1

COLO 205 = assay: NCI-60 growth inhibition, COLO 205
Excerpt: as §1

HCT-116 = assay: NCI-60 growth inhibition, HCT-116
Excerpt: as §1

HCT-15 = assay: NCI-60 growth inhibition, HCT-15
Excerpt: as §1

HT29 = assay: NCI-60 growth inhibition, HT29
Excerpt: as §1

SW-620 = assay: NCI-60 growth inhibition, SW-620
Excerpt: as §1

MALME-3M = assay: NCI-60 growth inhibition, MALME-3M; conditions: Melanoma MALME-3M, 48 h
Excerpt: as §1

SK-MEL-2 = assay: NCI-60 growth inhibition, SK-MEL-2
Excerpt: as §1

OVCAR-8 = assay: NCI-60 growth inhibition, OVCAR-8
Excerpt: as §1

786-0 = assay: NCI-60 growth inhibition, 786-0
Excerpt: as §1

SN12C = assay: NCI-60 growth inhibition, SN12C; conditions: Renal Cancer SN12C, 48 h
Excerpt: as §1

MDA-MB-231/ATCC = assay: NCI-60 growth inhibition, MDA-MB-231/ATCC; conditions: Breast Cancer MDA-MB-231/ATCC, 48 h
Excerpt: as §1

BT-549 = assay: NCI-60 growth inhibition, BT-549
Excerpt: as §1

T-47D = assay: NCI-60 growth inhibition, T-47D; conditions: Breast Cancer T-47D, 48 h
Excerpt: as §1

MDA-MB-468 = assay: NCI-60 growth inhibition, MDA-MB-468
Excerpt: as §1

[1] = tested on: MCF7 cells pretreated with the ROS scavenger N-Acetyl-Cysteine (NAC); assay: Cell viability of MCF7 cells pretreated with ROS scavenger NAC; conditions: 10 mM NAC, pre-incubation 2 hours
Method: FIG. 3 illustrates the effect of ROS on the activation of 1a-b. Cell viability assay of MCF7 cancer cells treated with varying concentrations of 1a-b in the presence of 10 mM NAC. Pre-incubation with this ROS scavenger was carried out for 2 hours. Data are presented as mean SD, n=4.
Cell Counting Kit-8 (CCK8, Dojingo) was used to carry out the cytotoxicity assessment of the prodrugs. Seeded cells were treated with varying compound concentrations for 48-72 h and the CCK8 kit was used to measure the cytotoxicity. For NAC experiments, this ROS scavenger was pre-incubated with the cells for 2 h and then co-incubated with the prodrugs for additional 48 hours unless otherwise noted.
The anticancer effects of new compounds 1a and 1b were tested using the breast cancer MCF7 cells and normal MEC1 cells (FIGS. 2A and 2B). […] These differential killing results highlight the specificity of new prodrugs 1a-1b for cancer cells over normal cells. […] To further verify the role of ROS in the drug release process, the MTT assays was performed, using MCF7 cells pretreated with the ROS scavenger N-Acetyl-Cysteine (NAC).

γH2AX = γH2AX immunofluorescence assay in MCF7 cells; conditions: 48 h
Method: FIGS. 4A and 4B illustrate the effect of compounds 1a-1b in apoptosis. FIG. 4A: immunofluorescence of DNA cleavage protein γH2Ax was enhanced by using 5-FU and prodrugs 1a-1b. FIG. 4B: immunoblot analysis of MCF-7 cells treated with 5-FU, prodrugs 1a-1b for apoptosis markers PARP1 and Caspase 3. The cells were treated for 48 h with the indicated concentrations of compounds.
Immunohistochemistry Analysis. MCF7 cells were seeded on poly-D-lysine coated slides. Compounds were incubated with cells for 48 h. Following treatment, cells were washed once in PBS and fixed in 10% formalin for 20 min at room temperature. Methanol was used to permeabilize the cells for 10 min and PBS wash was carried out. Bovine serum albumin was used for 1 h blocking and primary antibodies for γH2AX (SCBT, #sc-517348) was incubated with the cells overnight. Fluorescent secondary antibodies were incubated with cells along with DAPI. Cells were washed trice with PBS and the slides were mounted prior to confocal imaging.
To understand the mechanism of action of prodrugs 1a-1b, the impact of the treatment of compounds 1a-1b on the γH2AX formation in MCF7 cells were determined using immunofluorescence assay (FIG. 4A). […] The effects of prodrugs 1a-1b on the PARP1 and caspase 3 cleavage in MCF7 cells were also determined using Western blots assays (FIG. 4B). […] Treatment of 5-FU and compounds 1a-1b increased the levels of cleavage of PARP1 and caspase 3 in MCF7 cells, as compared with that in the vehicle-treated controls. Therefore, prodrugs 1a-1b, similar to 5-FU, can induce MCF7 cell apoptosis, which might contribute to their pharmacological actions.

Compound: CC1(C)OB(c2ccc(Cn3cc(F)c(=O)[nH]c3=O)cc2)OC1(C)C [Compound 1a, 5-Fluoro-1-(4-(4,4,5,5-tetramethyl-1,3,2-dioxaborolan-2-yl)benzyl)pyrimidine-2,4(1H,3H)-dione]
- inhibition at 50 µM (HL-60(TB); Homo sapiens): 68%
- inhibition at 50 µM (K-562; Homo sapiens, K562, Leukemia K-562, 48 h): 70%
- inhibition at 50 µM (EKVX; Homo sapiens): 28%
- inhibition at 50 µM (NCI-H322M; Homo sapiens): 14%
- inhibition at 50 µM (NCI-H460; Homo sapiens, Non-Small Cell lung Cancer NCI-H460, 48 h): 66%
- inhibition at 50 µM (COLO 205; Homo sapiens, Colon Cancer COLO 205, 48 h): 64%
- inhibition at 50 µM (HCT-116; Homo sapiens, Colon Cancer HCT-116, 48 h): 71%
- inhibition at 50 µM (HCT-15; Homo sapiens, Colon Cancer HCT-15, 48 h): 32%
- inhibition at 50 µM (HT29; Homo sapiens, HT-29, Colon Cancer HT29, 48 h): 76%
- inhibition at 50 µM (SW-620; Homo sapiens, Colon Cancer SW-620, 48 h): 66%
- inhibition at 50 µM (MALME-3M; Homo sapiens): 55%
- inhibition at 50 µM (SK-MEL-2; Homo sapiens, Melanoma SK-MEL-2, 48 h): 59%
- inhibition at 50 µM (OVCAR-8; Homo sapiens, Ovarian Cancer OVCAR-8, 48 h): 25%
- inhibition at 50 µM (786-0; Homo sapiens, Renal Cancer 786-0, 48 h): 19%
- inhibition at 50 µM (SN12C; Homo sapiens): 19%
- inhibition at 50 µM (MDA-MB-231/ATCC; Homo sapiens): 14%
- inhibition at 50 µM (BT-549; Homo sapiens, Breast Cancer BT-549, 48 h): 60%
- inhibition at 50 µM (T-47D; Homo sapiens, T47D): 51%
- inhibition at 50 µM (MDA-MB-468; Homo sapiens, Breast Cancer MDA-MB-468, 48 h): 87%
- anticancer effects upon pretreatment of NAC [1]: decreased significantly
- γH2AX formation (γH2AX): dramatically increased

Compound: O=c1[nH]c(=O)n(Cc2ccc(B(O)O)cc2)cc1F [Compound 1b, (4-((5-Fluoro-2,4-dioxo-3,4-dihydropyrimidin-I(2H)-yl)methyl)phenyl)boronic acid]
- Growth Inhibition (%) (HL-60(TB); 50 μM): 11%
- Growth Inhibition (%) (K-562; Leukemia K-562, 50 μM, 48 h): 18%
- Growth Inhibition (%) (EKVX; 50 μM): 16%
- Growth Inhibition (%) (NCI-H322M; 50 μM): 12%
- Growth Inhibition (%) (NCI-H460; Non-Small Cell lung Cancer NCI-H460, 50 μM, 48 h): 1%
- Growth Inhibition (%) (COLO 205; Colon Cancer COLO 205, 50 μM, 48 h): 8%
- Growth Inhibition (%) (HCT-116; Colon Cancer HCT-116, 50 μM, 48 h): 18%
- Growth Inhibition (%) (HCT-15; Colon Cancer HCT-15, 50 μM, 48 h): 10%
- Growth Inhibition (%) (HT29; Colon Cancer HT29, 50 μM, 48 h): 12%
- Growth Inhibition (%) (SW-620; Colon Cancer SW-620, 50 μM, 48 h): 17%
- Growth Inhibition (%) (MALME-3M; 50 μM): 32%
- Growth Inhibition (%) (SK-MEL-2; Melanoma SK-MEL-2, 50 μM, 48 h): 7%
- Growth Inhibition (%) (OVCAR-8; Ovarian Cancer OVCAR-8, 50 μM, 48 h): 6%
- Growth Inhibition (%) (786-0; Renal Cancer 786-0, 50 μM, 48 h): 6%
- Growth Inhibition (%) (SN12C; 50 μM): 7%
- Growth Inhibition (%) (MDA-MB-231/ATCC; 50 μM): 13%
- Growth Inhibition (%) (BT-549; Breast Cancer BT-549, 50 μM, 48 h): 30%
- Growth Inhibition (%) (T-47D; 50 μM): 5%
- Growth Inhibition (%) (MDA-MB-468; Breast Cancer MDA-MB-468, 50 μM, 48 h): 22%
- anticancer effects upon pretreatment of NAC [1]: decreased significantly
- γH2AX formation (γH2AX): dramatically increased
